In patent US20230390274A1 (EPIRIUM BIO INC., priority 2020, published 2023) one finds IC50 data, which are given here for 75 molecules.

Read-outs that look alike come from different tables or passages of the source.

A word on the IC50: it is the concentration that inhibits the measured activity by half.

The target in the experiment is 15-PGDH/HPGD (Homo sapiens (Human), UniProt P15428). The experiment in a line: hPGDH inhibitor screening biochemical assay. How it is done: A hydroxyprostaglandin dehydrogenase inhibition screening biochemical assay can be performed to assess the synthesized inhibitors provided herein. Provided herein is an exemplary biochemical assay for hPGDH inhibitor screening.
Chain of 15-PGDH/HPGD (P15428 whole entry): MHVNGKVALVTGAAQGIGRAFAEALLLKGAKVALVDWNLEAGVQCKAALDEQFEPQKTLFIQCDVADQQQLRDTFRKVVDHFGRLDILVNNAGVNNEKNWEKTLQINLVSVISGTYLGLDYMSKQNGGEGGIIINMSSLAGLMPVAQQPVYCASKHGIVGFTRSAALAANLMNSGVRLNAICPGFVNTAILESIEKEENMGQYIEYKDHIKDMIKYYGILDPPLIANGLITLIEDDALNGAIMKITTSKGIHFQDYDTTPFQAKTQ
The in vitro biochemical assay can be performed in white, 384 plates in total 20 μl reaction volume consisting of 10 nM of 15-PGDH/HPGD (R&D System #5660-DH), 15 μM Prostaglandin E2 (Sigma, Cat #P5640-10MG) and 0.25 mM β-Nicotinamide adenine dinucleotide sodium salt (Sigma, Cat #N0632-5G) made in reaction buffer (50 mM Tris-HCl, pH 7.5, 0.01% Tween 20) at 10-point dose response curve for test/tool compounds. Briefly, 5 μl (4×) of compounds solution and 5 μl (final concentration, 10 nM) of enzyme solution is added to white 384 well plates and incubated for 10 mins at 37° C. 5 μl (4×) of Prostaglandin E2 and 5 μl (4×) of β-Nicotinamide adenine dinucleotide sodium salt is added to the wells and incubated for 10 mins at rt. Fluorescence is recorded at ex/em=340 nm/485 nm. The percentage (%) inhibition of enzyme activity was determined relative to […] (1% DMSO) and IC50 was calculated using GraphPad prism software (four parameter-variable slope equation).

Setting [1] is: Table 1, PGDH inhibitors with a 6-5 ring core, read-out: hPGDH: IC50.
Where [2] appears, read: Table 2, PGDH inhibitors with a phenyl core, read-out: hPGDH: IC50.
[3] abbreviates: 10 nM 15-PGDH/HPGD, 15 μM PGE2, 0.25 mM NAD, read-out: hPGDH: Average IC50.

Turning to `O=C(c1ccc2c(c1)ncn2-c1cccc(Cl)c1)N1CCC(F)C1` (stereo not drawn), under setting [1], the IC50 came out at 158 nM.

As to `O=C(c1ccc2c(c1)ncn2-c1cccc(Cl)c1)N1CCCC1`, under setting [1], the IC50 came out at 274 nM.

On to `NC(=O)Cc1nc2cc(C(=O)N3CCCCC3)ccc2n1-c1cccc(Cl)c1`, for which the IC50 under setting [1] was found to be 576 nM.

As for `O=C(c1ccc2c(c1)ncn2-c1cccc(Cl)c1)N1CC2CC2C1` (stereo not drawn), the IC50 under setting [1] was found to be 116 nM.

Consider `COc1ccc(-n2c(C3CC3)nc3cc(C(=O)N4CCCCC4)ccc32)cc1`, for which the IC50 under setting [1] amounted to 197 nM.

For the molecule `COc1cccc(C(=O)Nc2ccc(C(=O)N3CCCCC3)cc2)c1`, under setting [2], the IC50 was determined as 135 nM.

In the case of `O=C(Nc1ccc(C(=O)N2CCCCC2)cc1)c1ccccc1Cl`, the IC50 under setting [2] is 277 nM.

For `COc1ccccc1NC(=O)c1ccc(C(=O)N2CCCCC2)cc1`, the IC50 under setting [2] worked out at 593 nM.

With `N#Cc1ccc(-n2ccc3cc(C(=O)N4CC[C@H](F)C4)cnc32)cc1` (single isomer, unassigned) [A-340], the IC50 under setting [3] is below 100 nM.

`N#Cc1ccc(-n2ccc3cc(C(=O)N4CC[C@@H](F)C4)cnc32)cc1` (single isomer, unassigned) [A-341]: under setting [3], the IC50 is below 100 nM.

Take `O=C(c1ccc2c(c1)ncn2-c1cccc(Cl)c1)N1CC2CCCC2C1` (stereo not drawn) [A-1]: the IC50 under setting [3] is below 100 nM.

In the case of `O=C(c1ccc2c(c1)ncn2-c1cccc(Cl)c1)N1CCCCCC1` [A-2], the IC50 under setting [3] is below 100 nM.

In the case of `O=C(c1ccc2c(c1)ncn2-c1cccc(Cl)c1)N1CC2CCC(C2)C1` [A-4], the IC50 under setting [3] was below 100 nM.

Consider `O=C(c1ccc2c(c1)ncn2-c1cccc(Cl)c1)N1CC2(CCC2)C1` [A-5], for which the IC50 under setting [3] is below 100 nM.

Regarding `O=C(c1ccc2c(c1)ncn2-c1cccc(Cl)c1)N1CCCCC1` [A-6], the IC50 under setting [3] was below 100 nM.

Take `O=C(c1ccc2c(c1)ncn2-c1cccc(Cl)c1)N1CCC(F)(F)CC1` [A-8]: the IC50 under setting [3] was below 100 nM.

As to `O=C(c1ccc2c(c1)ncn2-c1cccc(Cl)c1)N1CCC(F)(F)C1` [A-10], under setting [3], the IC50 was at least 1000 nM.

With `O=C(c1ccc2c(c1)ncn2-c1cccc(Cl)c1)N1CCC(Cl)C1` (stereo not drawn) [A-12], under setting [3], the IC50 is below 100 nM.

With `O=C(c1ccc2c(c1)ncn2-c1cccc(Cl)c1)N1CCC(O)C1` (stereo not drawn) [A-13], under setting [3], the IC50 is at least 1000 nM.

Take `O=C(Nc1ccccc1)c1ccc2c(c1)ncn2-c1cccc(Cl)c1` [A-16]: under setting [3], the IC50 is at least 1000 nM.

On to `O=C(c1ccc2c(c1)ncn2-c1cccc(Cl)c1)N1CC(F)C1` [A-20], for which, under setting [3], the IC50 is below 100 nM.

In the case of `O=C(c1ccc2c(c1)ncn2-c1cccc(Cl)c1)N1CC(Cl)C1` [A-21], under setting [3], the IC50 is below 100 nM.

On to `CN(C(=O)c1ccc2c(c1)ncn2-c1cccc(Cl)c1)C1CC1` [A-23, 1-(3-chlorophenyl)-N-cyclopropyl-N-methyl-1H-benzo[d]imidazole-5-carboxamide], for which, under setting [3], the IC50 was at least 1000 nM.

With `O=C1CCN(C(=O)c2ccc3c(c2)ncn3-c2cccc(Cl)c2)C1` [A-24, 1-(1-(3-chlorophenyl)-1H-benzo[d]imidazole-5-carbonyl)pyrrolidin-3-one], the IC50 under setting [3] was at least 1000 nM.

Turning to `CCOC(=O)c1nc2cc(C(=O)N3CCCCC3)ccc2n1-c1cccc(Cl)c1` [A-26], the IC50 under setting [3] was below 100 nM.

As for `CCOC(=O)Cc1nc2cc(C(=O)N3CCCCC3)ccc2n1-c1cccc(Cl)c1` [A-27], the IC50 under setting [3] was below 100 nM.

Turning to `Cc1nc2cc(C(=O)N3CCCCC3)ccc2n1-c1cccc(Cl)c1` [A-28], the IC50 under setting [3] was below 100 nM.

With `CCOC(=O)CCc1nc2cc(C(=O)N3CCCCC3)ccc2n1-c1cccc(Cl)c1` [A-29], under setting [3], the IC50 is below 100 nM.

As to `O=C(O)CCc1nc2cc(C(=O)N3CCCCC3)ccc2n1-c1cccc(Cl)c1` [A-30], the IC50 under setting [3] was below 100 nM.

For `NC(=O)CCc1nc2cc(C(=O)N3CCCCC3)ccc2n1-c1cccc(Cl)c1` [A-31], the IC50 under setting [3] was below 100 nM.

With `COc1ccc(-n2cnc3cc(C(=O)N4CCCCC4)ccc32)cc1` [A-32], the IC50 under setting [3] is below 100 nM.

Take `COc1ccc(-n2cnc3cc(C(=O)N4CCC(F)CC4)ccc32)cc1` [A-33]: under setting [3], the IC50 is below 100 nM.

Consider `COc1ccc(-n2cnc3cc(C(=O)N4CCCCC4)ccc32)nc1` [A-35], for which the IC50 under setting [3] is below 100 nM.

As to `COc1ccc(-n2cnc3cc(C(=O)N4CCCCC4)ccc32)cc1Cl` [A-36, (1-(3-chloro-4-methoxyphenyl)-1H-benzo[d]imidazol-5-yl)(piperidin-1-yl)methanone], the IC50 under setting [3] is below 100 nM.

Turning to `O=C(c1ccc2c(c1)ncn2-c1ccc2c(c1)OCO2)N1CCCCC1` [A-37], under setting [3], the IC50 was below 100 nM.

As for `COc1ccc(-n2cnc3cc(C(=O)N4CCC(F)CC4)ccc32)nc1` [A-38], the IC50 under setting [3] was below 100 nM.

On to `O=C(c1ccc2c(c1)ncn2-c1ccc(O)c(Cl)c1)N1CCCCC1` [A-39, (1-(3-chloro-4-hydroxyphenyl)-1H-benzo[d]imidazol-5-yl)(piperidin-1-yl)methanone], for which the IC50 under setting [3] was below 100 nM.

Consider `O=C(c1cnc2c(ccn2-c2cccc(Cl)c2)c1)N1CCCCC1` [A-40], for which, under setting [3], the IC50 is below 100 nM.

Regarding `O=C(c1cnc2c(ccn2-c2ccccn2)c1)N1CCCCC1` [A-41], under setting [3], the IC50 is below 100 nM.

On to `O=C(c1cnc2c(ccn2-c2cccnc2)c1)N1CCCCC1` [A-42], for which the IC50 under setting [3] is below 100 nM.

Consider `O=C(c1cnc2c(ccn2-c2ccncn2)c1)N1CCCCC1` [A-43], for which, under setting [3], the IC50 is below 100 nM.

Turning to `O=C(c1cnc2c(ccn2-c2cncnc2)c1)N1CCCCC1` [A-44], under setting [3], the IC50 was below 100 nM.

Take `O=C(c1cnc2c(ccn2-c2cnccn2)c1)N1CCCCC1` [A-45]: the IC50 under setting [3] was below 100 nM.

Consider `O=C(c1cnc2c(ccn2-c2cscn2)c1)N1CCCCC1` [A-47], for which the IC50 under setting [3] is below 100 nM.

`O=C(c1cnc2c(ccn2-c2cn[nH]c2)c1)N1CCCCC1` [A-48]: under setting [3], the IC50 was below 100 nM.

Regarding `Cn1cc(-n2ccc3cc(C(=O)N4CCCCC4)cnc32)cn1` [A-49], the half-maximal inhibitory concentration (IC50) under setting [3] is below 100 nM.

As to `O=C(c1cnc2c(ccn2-c2cnccn2)c1)N1CCC(F)CC1` [A-50], the IC50 under setting [3] was below 100 nM.

With `O=C(c1cnc2c(ccn2-c2ccncn2)c1)N1CCC(F)CC1` [A-53], under setting [3], the IC50 was below 100 nM.

On to `O=C(c1cnc2c(ccn2-c2ccc(O)nc2)c1)N1CCC(F)CC1` [A-55], for which the IC50 under setting [3] is below 100 nM.

For the molecule `O=C(c1cnc2c(ccn2-c2cccnc2)c1)N1CCC(F)CC1` [A-56], the IC50 under setting [3] was below 100 nM.

`O=C(c1cnc2c(c1)c(Cl)cn2-c1cccnc1)N1CCC(F)CC1` [A-57]: the IC50 under setting [3] is below 100 nM.

Regarding `Cn1cc(-n2ccc3cc(C(=O)N4CCC(F)CC4)cnc32)cn1` [A-58], the IC50 under setting [3] was below 100 nM.

As to `Cn1cc(-n2cc(Cl)c3cc(C(=O)N4CCC(F)CC4)cnc32)cn1` [A-59], the IC50 under setting [3] was below 100 nM.

Consider `O=C(c1cnc2c(c1)c(Cl)cn2-c1cncnc1)N1CCC(F)CC1` [A-60], for which the IC50 under setting [3] was below 100 nM.

As to `COc1ccc(-n2ccc3cc(C(=O)N4CCC(F)CC4)cnc32)cn1` [A-61], the IC50 under setting [3] was below 100 nM.

For the molecule `O=C(c1cnc2c(c1)ncn2-c1cccc(Cl)c1)N1CCCCC1` [A-62], the IC50 under setting [3] is below 100 nM.

Regarding `COc1ccc(-n2cnc3cc(C(=O)N4CCCCC4)cnc32)cc1` [A-63], the IC50 under setting [3] was below 100 nM.

As for `COc1ccc(-n2cnc3cc(C(=O)N4CCC(F)CC4)cnc32)cc1` [A-64], the IC50 under setting [3] was below 100 nM.

For `COc1ccc(-n2cnc3cc(C(=O)N4CCC(F)(F)CC4)cnc32)cc1` [A-65], the IC50 under setting [3] was below 100 nM.

Take `COc1ccc(-n2c(NC(C)=O)nc3cc(C(=O)N4CCC(F)CC4)cnc32)cc1` [A-68]: the IC50 under setting [3] is at least 1000 nM.

`O=C(c1ccc(COc2ccccc2Br)cc1)N1CCCCC1` [A-69]: under setting [3], the IC50 was below 100 nM.

`O=C(c1ccc(COc2ccccc2Cl)cc1)N1CCCCC1` [A-70]: the IC50 under setting [3] is below 100 nM.

On to `COc1cc(C(=O)N2CCCCC2)ccc1COc1ccccc1Cl` [A-71], for which the IC50 under setting [3] was below 100 nM.

With `O=C(c1ccc(CSc2ccccc2Cl)cc1)N1CCCCC1` [A-72], under setting [3], the IC50 was below 100 nM.

Take `O=C(c1ccc(COc2ccccc2Cl)cn1)N1CCC(F)CC1` [A-76]: the IC50 under setting [3] is at least 1000 nM.

`O=C(c1ccc(COc2ccccc2-c2ccccn2)cc1)N1CCCCC1` [A-77]: the IC50 under setting [3] was below 100 nM.

With `O=C(c1ccc(COc2ccccc2-c2cnc[nH]2)cc1)N1CCCCC1` [A-78], under setting [3], the IC50 was below 100 nM.

As for `O=C(c1ccc(COc2ccccc2-c2cncs2)cc1)N1CCCCC1` [A-79], the IC50 under setting [3] was below 100 nM.

As to `COc1ccccc1C(=O)Nc1ccc(C(=O)N2CCCCC2)cc1` [A-80], the IC50 under setting [3] is below 100 nM.

On to `COc1ccccc1C(=O)N(C)c1ccc(C(=O)N2CCCCC2)cc1` [A-81], for which the IC50 under setting [3] was at least 1000 nM.

Turning to `O=C(c1ccc2c(ccn2-c2cccc(Cl)c2)c1)N1CCCCC1` [A-87], the IC50 under setting [3] was below 100 nM.

For the molecule `O=C(c1ccc2c(c1)c(Cl)cn2-c1cccc(Cl)c1)N1CCCCC1` [A-88], the IC50 under setting [3] is below 100 nM.

In the case of `O=C(c1ccc2c(-c3cccc(Cl)c3)c[nH]c2c1)N1CCCCC1` [A-89, (3-(3-chlorophenyl)-1H-indol-6-yl)(piperidin-1-yl)methanone], under setting [3], the IC50 is below 100 nM.

On to `Cn1cc(-c2cccc(Cl)c2)c2ccc(C(=O)N3CCCCC3)cc21` [A-90, (3-(3-chlorophenyl)-1-methyl-1H-indol-6-yl)(piperidin-1-yl)methanone], for which the IC50 under setting [3] was below 100 nM.

As to `O=C(c1ccc2c(c1)CCCN2c1cccc(Cl)c1)N1CCCCC1` [A-91, (1-(3-chlorophenyl)-1,2,3,4-tetrahydroquinolin-6-yl)(piperidin-1-yl)methanone], the IC50 under setting [3] was below 100 nM.
